Patent publication US20120148492A1, “BISPHOSPHONIC ACID DERIVATIVE AND COMPOUND THEREOF LABELED WITH RADIOACTIVE METAL NUCLIDE” (FUJIFILM RI PHARMA CO., LTD., priority 2009, published 2012)

Tests used:
[1] = In vivo distribution of 68Ga-DOTA-alendronate in rats; design: species or system rat; conditions: for Blood radioactivity / Bone radioactivity / Kidney radioactivity / Large intestine radioactivity / Liver radioactivity / Muscle radioactivity / Small intestine radioactivity / Spleen radioactivity / Bone/blood: Wistar male rats, 120 minutes after drug administration; for Blood radioactivity / Bone radioactivity / Kidney radioactivity / Large intestine radioactivity / Liver radioactivity / Muscle radioactivity / Small intestine radioactivity / Spleen radioactivity: tail vein; for Bone/blood: ratio of radioactivity accumulation
Experimental: To groups, each containing three Wistar male rats, 0.2 mL of each of 68Ga-DOTA-alendronate and 99mTc-MDP (product name: Techne MDP injection, manufactured by FUJIFILM RI Pharma Co., Ltd., 740 MBq/2 mL), each diluted to 12.3 to 19.8 MBq/mL, was administered into the rat tail vein under anesthesia. Then, 120 minutes after administration, the rats were sacrificed, organs were excised, and the weight and the radioactivity of each organ were measured. The measurement values were calculated as % I.D./g tissue weight, which is the radioactivity in each tissue divided by the tissue weight, as the ratio with respect to the dose.

[2] = Wistar male rats, 18.5 to 37 MBq tail vein, from 60 minutes after administration
Experimental: To Wistar male rats, 68Ga-NOTA-alendronate and 99m Tc-MDP were each administered into the rat tail vein in amounts of 18.5 to 37 MBq under anesthesia. Then, 60 and 180 minutes after administration, images were taken by PET/CT or a SPECT camera.

[3] = Rat in vivo distribution experiment; conditions: for Blood radioactivity / Bone radioactivity / Kidney radioactivity / Large intestine radioactivity / Liver radioactivity / Muscle radioactivity / Small intestine radioactivity / Spleen radioactivity / Bone/blood: Wistar male rats; for Blood radioactivity / Bone radioactivity / Kidney radioactivity / Large intestine radioactivity / Liver radioactivity / Muscle radioactivity / Small intestine radioactivity / Spleen radioactivity: tail vein; for Bone/blood: ratio of radioactivity accumulation
Experimental: Subsequently, 15, 30, 60, 120, and 240 minutes after administration, the rats were sacrificed, organs were excised, and the weight and the radioactivity of each organ were measured. The measurement values were calculated as % I.D./g tissue weight, which is the radioactivity in each tissue divided by the tissue weight, as the ratio with respect to the dose.

[4] = tested on: local bone metastasis model (human prostate cancer-derived cells transplanted into the right tibia); conditions: local bone metastasis model mouse, approximately 6.0 MBq, from 60 minutes after administration
Experimental: Human prostate cancer-derived cells were transplanted into the right tibia of a mouse to produce a local bone metastasis model. To this model mouse, approximately 6.0 MBq of 68Ga-NOTA-alendronate was administered into the […] under anesthesia. An image was taken by PET/CT 60 minutes after administration.

For `O=C([O-])CN1CCN(CC(=O)[O-])CCN(CC(=O)NCCCC(O)(P(=O)(O)O)P(=O)(O)O)CCN(CC(=O)[O-])CC1.[68Ga+3]` [68Ga-DOTA-alendronate], the “radioactivity accumulation in bone” value ([1]; 120 minutes after administration, as 99mTc-MDP did) was “high radioactivity accumulation in bone”, the Blood radioactivity [1] was 0.024 % I.D./g and the Bone radioactivity [1] was 4.54 % I.D./g. For the same molecule, the Kidney radioactivity [1] was 0.26 % I.D./g, the Large intestine radioactivity [1] was 0.055 % I.D./g and the Liver radioactivity [1] was 0.018 % I.D./g. It also gave a Muscle radioactivity [1] of 0.005 % I.D./g, a Small intestine radioactivity [1] of 0.522 % I.D./g and a Spleen radioactivity [1] of 0.020 % I.D./g. The clearance from blood ([1]; rat, versus 99mTc-MDP) was “delayed clearance from blood”, the Bone/blood [1] was 189 and the “ratio of radioactivity accumulation in bone/blood” value ([1]; two hours after administration, versus 99mTc-MDP) was “no improvement”.

In the case of `O=C([O-])CN1CCN(CC(=O)[O-])CCN(C(CCC(=O)NCCCC(O)(P(=O)(O)O)P(=O)(O)O)C(=O)[O-])CC1.[68Ga+3]` (stereo not drawn) [68Ga-NOTA-alendronate], the “visualization of bone in images” value [2] is reported as “bone is clearly visualized”, the Blood radioactivity ([3]; 15 min after administration) is reported as 0.399 % I.D./g and the Bone radioactivity ([3]; 15 min after administration) is reported as 3.64 % I.D./g. It also gave a Kidney radioactivity ([3]; 15 min after administration) of 3.43 % I.D./g, a Large intestine radioactivity ([3]; 15 min after administration) of 0.132 % I.D./g and a Liver radioactivity ([3]; 15 min after administration) of 0.081 % I.D./g. It also gave a Muscle radioactivity ([3]; 15 min after administration) of 0.085 % I.D./g, a Small intestine radioactivity ([3]; 15 min after administration) of 0.121 % I.D./g and a Spleen radioactivity ([3]; 15 min after administration) of 0.103 % I.D./g. For the same molecule, the Blood radioactivity ([3]; 30 min after administration) was 0.145 % I.D./g, the Bone radioactivity ([3]; 30 min after administration) was 4.17 % I.D./g and the Kidney radioactivity ([3]; 30 min after administration) was 0.89 % I.D./g. For the same molecule, the Large intestine radioactivity ([3]; 30 min after administration) was 0.054 % I.D./g, the Liver radioactivity ([3]; 30 min after administration) was 0.039 % I.D./g and the Muscle radioactivity ([3]; 30 min after administration) was 0.033 % I.D./g. It also gave a Small intestine radioactivity ([3]; 30 min after administration) of 0.070 % I.D./g, a Spleen radioactivity ([3]; 30 min after administration) of 0.046 % I.D./g and a Blood radioactivity ([3]; 60 min after administration) of 0.030 % I.D./g. The Bone radioactivity ([3]; 60 min after administration) was 4.59 % I.D./g, the Kidney radioactivity ([3]; 60 min after administration) was 0.43 % I.D./g and the Large intestine radioactivity ([3]; 60 min after administration) was 0.023 % I.D./g. It also gave a Liver radioactivity ([3]; 60 min after administration) of 0.020 % I.D./g, a Muscle radioactivity ([3]; 60 min after administration) of 0.008 % I.D./g and a Small intestine radioactivity ([3]; 60 min after administration) of 0.056 % I.D./g. The Spleen radioactivity ([3]; 60 min after administration) was 0.021 % I.D./g, the Blood radioactivity ([3]; 120 min after administration) was 0.005 % I.D./g and the Bone radioactivity ([3]; 120 min after administration) was 5.19 % I.D./g. It also gave a Kidney radioactivity ([3]; 120 min after administration) of 0.37 % I.D./g, a Large intestine radioactivity ([3]; 120 min after administration) of 0.019 % I.D./g and a Liver radioactivity ([3]; 120 min after administration) of 0.015 % I.D./g. The Muscle radioactivity ([3]; 120 min after administration) was 0.004 % I.D./g, the Small intestine radioactivity ([3]; 120 min after administration) was 0.073 % I.D./g and the Spleen radioactivity ([3]; 120 min after administration) was 0.014 % I.D./g. It also gave a Blood radioactivity ([3]; 240 min after administration) of 0.003 % I.D./g, a Bone radioactivity ([3]; 240 min after administration) of 4.75 % I.D./g and a Kidney radioactivity ([3]; 240 min after administration) of 0.28 % I.D./g. For the same molecule, the Large intestine radioactivity ([3]; 240 min after administration) was 0.077 % I.D./g, the Liver radioactivity ([3]; 240 min after administration) was 0.016 % I.D./g and the Muscle radioactivity ([3]; 240 min after administration) was 0.002 % I.D./g. The Small intestine radioactivity ([3]; 240 min after administration) was 0.011 % I.D./g, the Spleen radioactivity ([3]; 240 min after administration) was 0.012 % I.D./g and the “ratio of radioactivity accumulation in bone to that in blood” value ([3]; compared to 99mTc-MDP, from an early stage after administration) was “dominantly improved”. For the same molecule, the accumulation in bone ([3]; compared to 99mTc-MDP, rat) was “equivalent value of accumulation in bone”, the “clearance of radioactivity from blood” value ([3]; compared to 99mTc-MDP, rat) was “more rapid clearance of radioactivity from blood” and the “non-specific accumulation in other organs” value ([3]; rat, similar amount to that of 99mTc-MDP) was “almost no non-specific accumulation”. It also gave a Bone/blood ([3]; 15 min after administration) of 9, a Bone/blood ([3]; 30 min after administration) of 29 and a Bone/blood ([3]; 60 min after administration) of 155. The Bone/blood ([3]; 120 min after administration) was 958, the Bone/blood ([3]; 240 min after administration) was 1696 and the “visualization of bone and bone lesion in PET/CT image” value [4] was “bone and the arrowed bone lesion are clearly visualized”.

In the case of `O.O.O=P([O-])([O-])CP(=O)([O-])[O-].[99Tc+4]` [99mTc-MDP], the Blood radioactivity [1] is reported as 0.021 % I.D./g, the Bone radioactivity [1] is reported as 4.38 % I.D./g and the Kidney radioactivity [1] is reported as 0.44 % I.D./g. The Large intestine radioactivity [1] was 0.015 % I.D./g, the Liver radioactivity [1] was 0.024 % I.D./g and the Muscle radioactivity [1] was 0.007 % I.D./g. For the same molecule, the Small intestine radioactivity [1] was 0.224 % I.D./g, the Spleen radioactivity [1] was 0.020 % I.D./g and the Bone/blood [1] was 209. It also gave a Blood radioactivity ([3]; 15 min after administration) of 0.415 % I.D./g, a Bone radioactivity ([3]; 15 min after administration) of 3.25 % I.D./g and a Kidney radioactivity ([3]; 15 min after administration) of 2.84 % I.D./g. For the same molecule, the Large intestine radioactivity ([3]; 15 min after administration) was 0.121 % I.D./g, the Liver radioactivity ([3]; 15 min after administration) was 0.086 % I.D./g and the Muscle radioactivity ([3]; 15 min after administration) was 0.085 % I.D./g. The Small intestine radioactivity ([3]; 15 min after administration) was 0.134 % I.D./g, the Spleen radioactivity ([3]; 15 min after administration) was 0.107 % I.D./g and the Blood radioactivity ([3]; 30 min after administration) was 0.171 % I.D./g. For the same molecule, the Bone radioactivity ([3]; 30 min after administration) was 3.41 % I.D./g, the Kidney radioactivity ([3]; 30 min after administration) was 1.02 % I.D./g and the Large intestine radioactivity ([3]; 30 min after administration) was 0.062 % I.D./g. For the same molecule, the Liver radioactivity ([3]; 30 min after administration) was 0.048 % I.D./g, the Muscle radioactivity ([3]; 30 min after administration) was 0.036 % I.D./g and the Small intestine radioactivity ([3]; 30 min after administration) was 0.093 % I.D./g. The Spleen radioactivity ([3]; 30 min after administration) was 0.056 % I.D./g, the Blood radioactivity ([3]; 60 min after administration) was 0.044 % I.D./g and the Bone radioactivity ([3]; 60 min after administration) was 3.97 % I.D./g. The Kidney radioactivity ([3]; 60 min after administration) was 0.62 % I.D./g, the Large intestine radioactivity ([3]; 60 min after administration) was 0.020 % I.D./g and the Liver radioactivity ([3]; 60 min after administration) was 0.029 % I.D./g. For the same molecule, the Muscle radioactivity ([3]; 60 min after administration) was 0.010 % I.D./g, the Small intestine radioactivity ([3]; 60 min after administration) was 0.081 % I.D./g and the Spleen radioactivity ([3]; 60 min after administration) was 0.027 % I.D./g. The Blood radioactivity ([3]; 120 min after administration) was 0.018 % I.D./g, the Bone radioactivity ([3]; 120 min after administration) was 4.07 % I.D./g and the Kidney radioactivity ([3]; 120 min after administration) was 0.36 % I.D./g. The Large intestine radioactivity ([3]; 120 min after administration) was 0.053 % I.D./g, the Liver radioactivity ([3]; 120 min after administration) was 0.022 % I.D./g and the Muscle radioactivity ([3]; 120 min after administration) was 0.005 % I.D./g. For the same molecule, the Small intestine radioactivity ([3]; 120 min after administration) was 0.299 % I.D./g, the Spleen radioactivity ([3]; 120 min after administration) was 0.019 % I.D./g and the Blood radioactivity ([3]; 240 min after administration) was 0.012 % I.D./g. The Bone radioactivity ([3]; 240 min after administration) was 4.25 % I.D./g, the Kidney radioactivity ([3]; 240 min after administration) was 0.35 % I.D./g and the Large intestine radioactivity ([3]; 240 min after administration) was 0.467 % I.D./g. It also gave a Liver radioactivity ([3]; 240 min after administration) of 0.019 % I.D./g, a Muscle radioactivity ([3]; 240 min after administration) of 0.004 % I.D./g and a Small intestine radioactivity ([3]; 240 min after administration) of 0.056 % I.D./g. The Spleen radioactivity ([3]; 240 min after administration) was 0.019 % I.D./g, the Bone/blood ([3]; 15 min after administration) was 8 and the Bone/blood ([3]; 30 min after administration) was 20. The Bone/blood ([3]; 60 min after administration) was 91, the Bone/blood ([3]; 120 min after administration) was 228 and the Bone/blood ([3]; 240 min after administration) was 358.
